The text below walks through data of patent US20030215462A1, “Use of UGT inhibitors to increase bioavailability” (priority 2001, published 2003).

Structures are written as SMILES.

The target of data set [1] is T1, UGT1A3 (Homo sapiens, UniProt P35503).
T1 sequence (P35503 29-534): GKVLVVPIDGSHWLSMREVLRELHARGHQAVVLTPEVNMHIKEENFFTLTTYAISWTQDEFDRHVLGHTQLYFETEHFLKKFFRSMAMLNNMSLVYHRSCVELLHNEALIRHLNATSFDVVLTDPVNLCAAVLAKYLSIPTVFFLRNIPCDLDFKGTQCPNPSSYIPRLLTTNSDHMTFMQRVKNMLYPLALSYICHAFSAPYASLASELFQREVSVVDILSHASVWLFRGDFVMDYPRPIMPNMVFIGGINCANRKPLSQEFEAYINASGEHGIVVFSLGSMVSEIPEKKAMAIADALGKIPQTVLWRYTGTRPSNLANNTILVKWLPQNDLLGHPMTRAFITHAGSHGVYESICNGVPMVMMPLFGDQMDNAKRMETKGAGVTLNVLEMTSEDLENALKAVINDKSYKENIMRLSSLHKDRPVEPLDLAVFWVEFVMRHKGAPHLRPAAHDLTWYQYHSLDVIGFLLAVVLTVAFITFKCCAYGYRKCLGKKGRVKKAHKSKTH
Briefly: Substrate glucuronidation by recombinant UGT1A3. Conditions: for 7-HFC glucuronidation rate: 7-HFC 50 μM.

The target of data set [2] is T2, UGT2B15 (Homo sapiens, UniProt P54855). Briefly: Substrate glucuronidation by recombinant UGT2B15. The following applies: UGT2B15 Supersomes 250 μg/ml; 7-HFC 50 μM.
The subject of a further data set is human liver microsomes. Briefly: Glucuronidation of UGT substrates by human liver microsomes. Conditions: for 7-HFC glucuronidation rate: 100 μg/ml protein, 1 mM UDPGA, 15 min. Background: Liver microsomes are a subcellular fraction often used to study metabolism.
Assay in data set [3]: as above
Conditions: human, human liver microsomes, pH 7.5.

The test system of data set [4] is pooled human jejunum microsomes. The data set is described as follows: Glucuronidation of UGT substrates by pooled human jejunum microsomes. Conditions: human jejunum microsomes (table footnote).
Data set [5] has as its target T3, UGT1A6 (Homo sapiens, UniProt P19224).
T3 sequence (P19224 27-532): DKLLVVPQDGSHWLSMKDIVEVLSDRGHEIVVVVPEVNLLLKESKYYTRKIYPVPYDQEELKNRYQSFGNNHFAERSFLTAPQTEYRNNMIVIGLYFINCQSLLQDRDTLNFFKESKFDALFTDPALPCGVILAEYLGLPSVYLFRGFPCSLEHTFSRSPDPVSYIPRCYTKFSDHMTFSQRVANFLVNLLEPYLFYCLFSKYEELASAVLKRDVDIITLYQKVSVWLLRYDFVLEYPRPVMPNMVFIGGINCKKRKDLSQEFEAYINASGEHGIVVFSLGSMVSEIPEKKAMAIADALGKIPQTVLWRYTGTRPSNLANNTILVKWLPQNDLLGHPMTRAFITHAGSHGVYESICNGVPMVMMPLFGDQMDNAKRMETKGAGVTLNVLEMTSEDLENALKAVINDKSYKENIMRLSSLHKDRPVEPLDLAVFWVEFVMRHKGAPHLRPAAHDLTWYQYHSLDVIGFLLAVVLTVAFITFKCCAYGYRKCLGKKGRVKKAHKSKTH
The data set is described as follows: Substrate glucuronidation by recombinant UGT1A6. The following applies: for 7-HFC glucuronidation rate: 7-HFC 50 μM.

The target of another data set is T4, UGT2B7 (Homo sapiens, UniProt P16662).
T4 sequence (P16662 24-529): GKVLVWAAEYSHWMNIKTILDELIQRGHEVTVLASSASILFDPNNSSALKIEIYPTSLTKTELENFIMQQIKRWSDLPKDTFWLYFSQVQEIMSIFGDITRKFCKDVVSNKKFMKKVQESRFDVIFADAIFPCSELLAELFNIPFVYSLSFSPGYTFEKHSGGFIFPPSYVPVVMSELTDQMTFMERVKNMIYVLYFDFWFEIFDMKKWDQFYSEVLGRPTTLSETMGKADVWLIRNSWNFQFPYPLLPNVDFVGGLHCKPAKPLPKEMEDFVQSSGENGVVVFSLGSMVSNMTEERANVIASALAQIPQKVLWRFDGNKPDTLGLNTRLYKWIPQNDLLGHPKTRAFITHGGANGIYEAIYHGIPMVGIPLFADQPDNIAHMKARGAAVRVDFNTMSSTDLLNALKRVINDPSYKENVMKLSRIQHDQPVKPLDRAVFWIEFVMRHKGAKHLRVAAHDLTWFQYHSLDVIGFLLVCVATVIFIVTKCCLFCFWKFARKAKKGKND
The data set is described as follows: Substrate glucuronidation by recombinant UGT2B7. Conditions: for 7-HFC glucuronidation rate: 7-HFC 50 μM.

Data set [6] has as its target T3, UGT1A6.
The target of the next data set is T5, UGT1A1 (Homo sapiens, UniProt P22309).
T5 sequence (P22309 26-533): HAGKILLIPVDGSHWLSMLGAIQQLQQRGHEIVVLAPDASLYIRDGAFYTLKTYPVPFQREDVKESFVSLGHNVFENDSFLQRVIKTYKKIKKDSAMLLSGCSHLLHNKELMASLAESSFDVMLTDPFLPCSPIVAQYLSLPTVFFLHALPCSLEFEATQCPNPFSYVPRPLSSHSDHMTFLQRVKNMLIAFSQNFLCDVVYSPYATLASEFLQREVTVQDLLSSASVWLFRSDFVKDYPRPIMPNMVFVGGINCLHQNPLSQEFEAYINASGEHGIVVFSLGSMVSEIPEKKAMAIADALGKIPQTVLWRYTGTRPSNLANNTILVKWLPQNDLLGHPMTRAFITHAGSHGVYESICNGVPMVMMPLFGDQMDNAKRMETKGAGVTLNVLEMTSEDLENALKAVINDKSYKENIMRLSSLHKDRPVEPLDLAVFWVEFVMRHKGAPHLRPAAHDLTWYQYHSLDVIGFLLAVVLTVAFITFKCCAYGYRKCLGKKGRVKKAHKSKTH

The target of data set [7] is T2, UGT2B15.
Data set [8] concerns the target T1, UGT1A3.
The conditions of data set [9]: humans; cited from earlier work.

T2 sequence (P54855 24-530): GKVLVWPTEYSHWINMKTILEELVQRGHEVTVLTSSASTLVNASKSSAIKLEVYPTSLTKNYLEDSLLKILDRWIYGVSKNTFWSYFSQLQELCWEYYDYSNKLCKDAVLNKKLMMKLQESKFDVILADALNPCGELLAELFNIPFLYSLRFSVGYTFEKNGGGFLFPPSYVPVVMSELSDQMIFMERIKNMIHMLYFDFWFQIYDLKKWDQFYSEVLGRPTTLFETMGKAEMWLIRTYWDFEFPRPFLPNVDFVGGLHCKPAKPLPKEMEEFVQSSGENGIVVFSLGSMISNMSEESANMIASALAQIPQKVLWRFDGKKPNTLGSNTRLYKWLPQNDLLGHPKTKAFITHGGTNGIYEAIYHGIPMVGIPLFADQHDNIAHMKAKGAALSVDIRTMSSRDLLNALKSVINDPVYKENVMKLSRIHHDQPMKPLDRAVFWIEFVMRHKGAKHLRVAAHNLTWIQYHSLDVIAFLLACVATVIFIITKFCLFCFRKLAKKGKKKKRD

`O=c1cc(C(F)(F)F)c2ccc(O)cc2o1` [7-HFC, 7-hydroxy-4-(trifluoromethyl)coumarin]: the entries for the “7-HFC glucuronidation rate in Panvera Bacculosomes as % of Gentest Supersomes” value on UGT1A3 [1] (UGT1A3), at UGT1A6 [5] (UGT1A6) and at UGT2B7 (UGT2B7) were 2%, 31% and 22%, respectively. The 7-HFC glucuronidation rate on UGT1A3 [1] (UGT1A3 Bacculosomes 250 μg/ml) is 17 ± 1 pmol/min/mg protein; at UGT1A3 [1] (UGT1A3 Supersomes 250 μg/ml), 952 ± 82 pmol/min/mg protein; on UGT2B15 [2], 976 ± 17 pmol/min/mg protein; in the data set with human liver microsomes (liver microsome lot 032101) it was 29,907±562 pmol/min/mg; with human liver microsomes (liver microsome lot 062101), 33,039±493 pmol/min/mg; in the data set with human liver microsomes (liver microsome lot 062900), 26,405±272 pmol/min/mg. The 7-HFC glucuronidation rate on UGT1A6 [5] (UGT1A6 Bacculosomes 250 μg/ml) is given as 1528 ± 34 pmol/min/mg protein; on UGT1A6 [5] (UGT1A6 Supersomes 250 μg/ml) it was 4904 ± 368 pmol/min/mg protein; at UGT2B7 (UGT2B7 Bacculosomes 250 μg/ml), 212 ± 13 pmol/min/mg protein; at UGT2B7 (UGT2B7 Supersomes 250 μg/ml), 972 ± 72 pmol/min/mg protein. Also, the “7-HFC glucuronidation rate in human liver microsomes, times higher than UGT1A6 Supersomes” value in the data set on human liver microsomes was 6 times. The 7-HFC metabolism rate was 26,405 ± 272 pmol/min/mg with human liver microsomes (human liver microsomes (table footnote)) and 6,829 ± 61 pmol/min/mg in [4]. In addition, in the data set with human liver microsomes (microsome lot 062900, substrate 20-500 μM), the “mean apparent Vmax for 7-HFC glucuronidation” value was 60 nmol/min/mg microsomal protein. The Km (as a rule, the substrate concentration at which the rate is half of its maximum) at 15 min in data set [3] came to 85 µM.

Take `CC(CCc1ccccc1)NCC(O)c1ccc(O)c(C(N)=O)c1` (centres unmarked) [Labetalol, labetalol]: the “labetalol metabolism, in words” value at UGT1A6 [6], on UGT1A1, on UGT2B15 [7] and at UGT1A3 [8] was “No detectable metabolism was observed” in each case. Further, the absolute oral bioavailability in data set [9] is given as 25-30%.
